{"source": "patent US20160113904A1", "about": "“SKIN CARE PRODUCTS COMPRISING SUBSTITUTED HYDROXYPROLINE WITH UNSATURATED FATTY ACIDS DERIVATIVES” (MEDWELL LABORATORIES LTD., priority 2013, published 2016)", "assay_type_in_all_cases": "in vivo, human", "key": {"[1]": {"tested_on": "volunteers with psoriasis", "assay": "Psoriasis trial: subjective pruritus level", "conditions": "for Pruritus level: treated area, scale 0-5", "excerpt": "Fifteen volunteers aged 29-73 with psoriasis.\nVolunteers were instructed to apply the product only on one side of the body, on the worst affected area at least once a day, for 4 weeks, while the other side was defined as the control area and was not treated.\nThe volunteers were asked to assess the pruritus level on a 0-5 scale at T0, T1 and T2.\nA statistical comparison between T0 and the other two time-points (T1 and T2) and between the treated and the Control areas were made by paired sample t-test, while p<0.05 indicated a significant difference"}, "[2]": {"tested_on": "volunteers with Atopic dermatitis", "assay": "Atopic dermatitis trial: side effects", "conditions": "topical product use", "excerpt": "The participants were asked to keep a record of the daily applications in a diary and to note any side effects resulting from the product application.\nIn addition to keeping records of side effects, volunteers were asked to immediately report any side effects, such as dryness, burning sensation, peeling of the skin, redness, etc. to 1SR."}, "[3]": {"tested_on": "healthy female volunteers, facial wrinkles", "assay": "Anti wrinkle test: volunteers' subjective assessment of wrinkles", "conditions": "treated side, scale 0-10", "experimental": "(§1) Ten healthy female volunteers were included and completed the study.\nA subjective assessment of facial wrinkles condition was performed by the volunteers at each time point.\n(§2) A cosmetic anti wrinkle product MW-001 was applied on half of the face for four weeks by each volunteer while the other half served as a control, without any product application during the whole test period.\nThe volunteers filled out a questionnaire after 2 and 4 weeks of application.\nThe volunteers were asked to answer a questionnaire after four weeks of application, regarding the assessment of each of the tested products, and to evaluate the improvement of the skin beneath and at the side of the eye."}, "[4]": {"tested_on": "volunteers with Atopic dermatitis", "assay": "Atopic dermatitis trial: hydration level by Corneometer", "conditions": "for Change in hydration level / Hydration level: treated area; for Hydration level: Corneometer", "experimental": "(§3) Ten volunteers aged 2-30 years participated in the trial. Four females and six males.\n(§4) Volunteers were instructed to apply the product only on one side of the body, on the worst affected area, while the other side was defined as the control area and was not treated. The tested material, a body lotion product, was applied 1-3 times a day for a period of 4 weeks.\nHydration level was evaluated by Comeometer CM 825, Courage & Khazaka, CK. The probe of the Corneometer was placed on the skin at a constant pressure and measurements of skin hydration were taken. Skin hydration was recorded at baseline, after 1 week and after 2 weeks of treatment. Room temperature and humidity were kept constant.\n(§5) A statistical comparison between T0 and the other two time-points (T1 and T2) and between the treated and the Control areas were made according to the Wilcoxon signed-ranks test, while p<0.05 indicated a significant difference"}, "[5]": {"tested_on": "healthy female volunteers, crow's feet area around the eyes", "assay": "Anti wrinkle test: silicone imprints, skin roughness", "excerpt": "as §1\nSilicon imprints were taken from the crow's feet area around the eyes at both treated and control sides at each time point.\nas §2\nA computer program draws a realistic density three-dimensional image of the relief of the skin on a colour screen for a particular density of points selected for x and y axes and then the measurements data stored in the computer are processed and then evaluated.\nThis analysis consists of the following steps:\n1. Generation of a roughness profile from the surface relief by alignment and filtering. 2. Calculation of standardized roughness parameters DIN 4768 ff). […].\nA statistical comparison between the results at T0 and at T1 was made according to the Wilcoxon signed-ranks test, a very sensitive paired-samples non-parametric test for small groups with unknown distribution, where p<0.05 indicates a significant difference. The software used was SPSS 14."}, "[6]": {"tested_on": "healthy female volunteers, facial skin", "assay": "Anti wrinkle test: TEWL by Tewameter", "conditions": "face, treated area", "experimental": "as §1\nMoisture level of the skin (corneometry) and TEWL (Trans Epidermal Water Loss) were measured at each time point.\nas §2\nTEWL (the ability not to harm the skin barrier) was measured with Tewameter TM 300, Courage & Khazaka, CK. TEWL was recorded at T0, T1 and T2. The results of TEWL in each measurement were recorded after stabilization of the curve of the results in real time. Room temperature and humidity were constant."}, "[7]": {"tested_on": "volunteers with Atopic dermatitis", "assay": "Atopic dermatitis trial: erythema level by Mexameter", "conditions": "for Change in erythema level / Erythema level: treated area; for Erythema level: Mexameter", "experimental": "as §3, §4\nErythema level was evaluated by Mexameter, Courage & Khazaka, CK. The probe of the Mexameter was placed on the skin at a constant pressure and measurements of skin hydration were taken. Skin erythema level was recorded at baseline, after 1 week and after 2 weeks of treatment.\nas §5"}, "[8]": {"tested_on": "volunteers with Atopic dermatitis", "assay": "Atopic dermatitis trial: subjective pruritus intensity", "conditions": "for Change in Pruritus level / Pruritus level: treated area; for Pruritus level: scale 0-5", "excerpt": "as §3, §4\nThe volunteers were asked to assess the pruritus intensity on a 0-5 scale at T0, T1 and T2. • 0=None • 1=Slight • 2=Moderate • 3=Severe • 4=Extreme • 5=Very Extreme\nas §5"}, "[9]": {"tested_on": "healthy female volunteers", "assay": "Anti wrinkle test: side effects", "conditions": "facial use for 4 weeks", "excerpt": "Volunteers were asked to report side effects, such as dryness, burning sensation, peeling of the skin, redness, etc. immediately to the study director."}, "[10]": {"tested_on": "volunteers with Atopic dermatitis", "assay": "Atopic dermatitis trial: transepidermal water loss (TEWL) by Tewameter", "conditions": "treated area", "experimental": "as §3, §4\nTransepidermal water loss (TEWL) was measured by Tewameter 300 TM, Courage & Khazaka, CK. TEWL was recorded at baseline and after one week and after two weeks of treatment. Room temperature and humidity were kept constant.\nas §5"}}, "note": "“Also recorded” adds a separate entry of the source.", "data": [{"compound": "CCC=CCC=CCC=CCC=CCC=CCC=CCCC(=O)N1CC(O)CC1C(=O)O", "note": "(stereo in doubt) [MW-001]", "values": [{"measurement": "Pruritus level, statistical analysis of change", "setting": "[1]; any of the sides, whole study period, p>0.05", "result": "No significant change"}, {"measurement": "Pruritus level", "setting": "[1]; T0 baseline", "result": 2.1}, {"measurement": "Pruritus level", "setting": "[1]; T1 after two weeks", "result": 1.6}, {"measurement": "Pruritus level", "setting": "[1]; T2 after four weeks", "result": 1.3}, {"measurement": "Side effects / safety", "setting": "[2]", "result": "None of the participants had side effects; also recorded: safe for use"}, {"measurement": "Volunteers' grading of improvement of wrinkle appearance", "setting": "[3]; after 2 weeks of treatment", "result": 3.5}, {"measurement": "Volunteers' grading of wrinkle improvement around the eyes", "setting": "[3]; after 2 weeks of treatment", "result": 3.5}, {"measurement": "Volunteers' grading of wrinkle improvement around the eyes", "setting": "[3]; after 4 weeks of treatment", "result": 4.3}, {"measurement": "Volunteers' grading of improvement in wrinkles appearance", "setting": "[3]; printed 'After 2 weeks of treatment' (second statement)", "result": 4.6}, {"measurement": "Hydration level, statistical analysis of change", "setting": "[4]; any of the sides", "result": "no significant change"}, {"measurement": "Change in hydration level", "setting": "[4]; Baseline", "result": 100, "unit": "%"}, {"measurement": "Hydration level", "setting": "[4]; T0 baseline", "result": 21.1}, {"measurement": "Hydration level", "setting": "[4]; T1 after one week", "result": 30.7}, {"measurement": "Hydration level", "setting": "[4]; T2 after two weeks", "result": 27.8}, {"measurement": "Change in hydration level", "setting": "[4]; Week 1, relative to baseline", "result": 146, "unit": "%"}, {"measurement": "Change in hydration level", "setting": "[4]; Week 2, relative to baseline", "result": 132, "unit": "%"}, {"measurement": "Overall efficacy conclusion", "setting": "[5]; rough and wrinkled skin", "result": "efficient for the treatment of rough and wrinkled skin"}, {"measurement": "Decrease of skin roughness", "setting": "[5]; treated area, before versus after 2 weeks of use", "result": 10.8, "unit": "%"}, {"measurement": "Decrease of skin roughness", "setting": "[5]; treated area, before versus after 4 weeks of use", "result": 19.5, "unit": "%"}, {"measurement": "Skin roughness improvement, statistical analysis", "setting": "[5]; treated area, both T1 and T2, p<0.05", "result": "significant"}, {"measurement": "Average TEWL level", "setting": "[6]; T0 baseline", "result": 7.8, "unit": "g/hm^2"}, {"measurement": "Average TEWL level", "setting": "[6]; T1 after 2 weeks of use", "result": 9.4, "unit": "g/hm^2"}, {"measurement": "Average TEWL level", "setting": "[6]; T2 after 4 weeks of use", "result": 7.6, "unit": "g/hm^2"}, {"measurement": "Change in erythema level", "setting": "[7]; Baseline", "result": 100, "unit": "%"}, {"measurement": "Erythema level", "setting": "[7]; T0 baseline", "result": 620.5}, {"measurement": "Erythema level", "setting": "[7]; T1 after one week", "result": 562.7}, {"measurement": "Erythema level", "setting": "[7]; T2 after two weeks", "result": 600.2}, {"measurement": "Change in erythema level", "setting": "[7]; Week 1, relative to baseline", "result": 91, "unit": "%"}, {"measurement": "Change in erythema level", "setting": "[7]; Week 2, relative to baseline", "result": 97, "unit": "%"}, {"measurement": "Erythema level, statistical analysis of change", "setting": "[7]; treated side, after 1 week of treatment", "result": "decreased significantly"}, {"measurement": "Erythema level, statistical analysis versus baseline", "setting": "[7]; treated side, after the increase following week 1", "result": "not significantly different"}, {"measurement": "Pruritus level, statistical analysis of change", "setting": "[8]; after 1 and 2 weeks of treatment, only at the treated area", "result": "decreased significantly"}, {"measurement": "Change in Pruritus level", "setting": "[8]; Baseline", "result": 100, "unit": "%"}, {"measurement": "Pruritus level", "setting": "[8]; T0 baseline", "result": 3.4}, {"measurement": "Pruritus level", "setting": "[8]; T1 after one week", "result": 1.4}, {"measurement": "Pruritus level", "setting": "[8]; T2 after two weeks", "result": 0.9}, {"measurement": "Change in Pruritus level", "setting": "[8]; Week 1, relative to baseline", "result": 41, "unit": "%"}, {"measurement": "Change in Pruritus level", "setting": "[8]; Week 2, relative to baseline", "result": 26, "unit": "%"}, {"measurement": "Side effects / safety", "setting": "[9]", "result": "None of the volunteers reported of any side effects; also recorded: safe for use"}, {"measurement": "Change in TEWL level", "setting": "[10]; Baseline", "result": 100, "unit": "%"}, {"measurement": "TEWL level", "setting": "[10]; T0 baseline", "result": 13.6, "unit": "g/m2/h"}, {"measurement": "TEWL level", "setting": "[10]; T1 after one week", "result": 12.5, "unit": "g/m2/h"}, {"measurement": "TEWL level", "setting": "[10]; T2 after two weeks", "result": 10.5, "unit": "g/m2/h"}, {"measurement": "Change in TEWL level", "setting": "[10]; Week 1, relative to baseline", "result": 92, "unit": "%"}, {"measurement": "Change in TEWL level", "setting": "[10]; Week 2, relative to baseline", "result": 78, "unit": "%"}]}]}
